One data set can be described thus: clinical. The following applies: human, in vivo. On the procedure:
This was a Phase 1, open-label, one-sequence crossover, drug-interaction study to evaluate and compare the PK of repaglinide when administered alone and concomitantly with OPC (micronized). Subjects received a single dose of repaglinide 0.5 mg on Days 1 and 15 at approximately 0800 hours. In addition, subjects received OPC 50 mg once daily on Days 2 through 15 at approximately 0800 hours.
Subjects were required to fast overnight from midnight (2400 hours) until 2 hours postdose on Days 1 through 15. Blood samples for pharmacokinetic analysis of OPC and its metabolites and for repaglinide were collected at scheduled times during the study. Safety and tolerability assessments were conducted at scheduled times during the study.
Blood samples to determine repaglinide plasma concentrations were collected on Days 1 and 15 at approximately 30 minutes prior to repaglinide dosing and at 0.25, 0.5, 0.75, 1, 1.5, 2, 3, 4, 5, 6, 8, 10, 12, and 24 hours post-repaglinide dosing.
PK parameters for OPC and its metabolites and repaglinide were calculated using non-compartmental methods.
A statistical assessment of the drug-drug interaction between repaglinide and opicapone is provided below. A repeated measures linear mixed model with fixed effect for treatment and random effect for subject was utilized. An unstructured variance-covariance matrix was assumed for the mixed model analysis. Geometric means (GM), ratios of geometric means (GMR), and their confidence intervals (CI) are shown on the original scale of measurement. Within-Subject CV was calculated as 100*sqrt[(sA2+sC2−2sAC)/2], where sA2 and sC2 are the estimated variances on the log scale for the two treatments, and sAC is the corresponding estimated covariance.

For data set [1] the following is noted: cited from earlier work.
For another data set, the target named is T1, CYP2C8 (Homo sapiens, UniProt P10632).
T1 sequence (P10632 1-490): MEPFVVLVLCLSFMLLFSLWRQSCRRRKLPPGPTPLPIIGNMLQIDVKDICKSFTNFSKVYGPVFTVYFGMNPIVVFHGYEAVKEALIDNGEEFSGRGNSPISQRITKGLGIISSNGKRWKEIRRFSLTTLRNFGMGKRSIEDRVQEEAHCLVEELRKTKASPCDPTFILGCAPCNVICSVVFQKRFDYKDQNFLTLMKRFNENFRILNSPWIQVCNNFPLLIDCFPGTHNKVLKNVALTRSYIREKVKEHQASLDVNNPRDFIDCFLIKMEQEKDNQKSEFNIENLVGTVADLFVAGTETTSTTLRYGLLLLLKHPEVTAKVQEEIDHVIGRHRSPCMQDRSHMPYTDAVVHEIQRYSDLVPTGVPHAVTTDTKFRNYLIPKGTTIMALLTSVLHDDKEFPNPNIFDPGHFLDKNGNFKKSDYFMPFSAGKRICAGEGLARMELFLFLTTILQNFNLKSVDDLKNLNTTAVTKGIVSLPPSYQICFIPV
The following applies: statement of the European approved drug label; cited from earlier work.

Setting [2] is: non-micronized opicapone 25 mg single dose, repaglinide 0.5 mg.

SMILES strings stand for the structures.

As a reminder, the Tmax is the time from dosing to the highest level. As usually defined, the half-life is the time needed for the level to fall by half in the phase considered. Read a low half-life as fast loss. Usually AUC(0-inf) stands for the area under the concentration-time curve extrapolated to infinity. Low values mean less exposure, high ones more exposure. The AUC(0-t) is exposure summed from dosing to a finite time, without extrapolation to infinity. Low readings indicate less exposure, high ones more exposure. The Cmax is the peak of the concentration-time curve.

With `CCOc1cc(CC(=O)N[C@@H](CC(C)C)c2ccccc2N2CCCCC2)ccc1C(=O)O` [Repaglinide, repaglinide], in the data set “clinical”, the time to peak (Tmax) was 30 min and the half-life was 38.4 min. Moreover, in the data set “clinical” (AUC0-inf, GM), the AUC(0-inf) is 11.6 ng·h/mL. Moreover, the AUC(0-t) in “clinical” (AUC0-t, GM) was 10.9 ng·h/mL. In “clinical” (Cmax, GM), this compound yielded a Cmax of 10.1 ng/mL.
Regarding `Cc1c(Cl)c(C)[n+]([O-])c(Cl)c1-c1noc(-c2cc(O)c(O)c([N+](=O)[O-])c2)n1` [opicapone, 5-[3-(2,5-dichloro-4,6-dimethyl-1-oxy-pyridin-3-yl)-[1,2,4]oxadiazol-5-yl]-3-nitrobenzene-1,2-diol], in data set [1] (setting [2]), the “increase in repaglinide AUC0-tlast when taken with opicapone vs. repaglinide alone” value is on record as 9% and the “increase in repaglinide Cmax when taken with opicapone vs. repaglinide alone” value was 31%. Besides, in data set [1] (opicapone 25 mg, less than optimal formulation, rate but not extent of exposure increased), the “average increase in the rate of exposure to repaglinide when co-administered with opicapone” value is listed as 30%. Besides, the “inhibition of CYP2C8” value on CYP2C8 was “weak inhibitor”.

The record behind these values is patent US20210220345A1, “METHODS FOR THE ADMINISTRATION OF COMT INHIBITORS” (Neurocrine Biosciences, Inc., priority 2018, published 2021).
